{
  "source": "paper PMC11470957",
  "about": "“Principles of paralog-specific targeted protein degradation engaging the C-degron E3 KLHDC2” (Nature Communications, 2024)",
  "key": {"[1]": {"system": "KLHDC2, KLHDC3, KLHDC10, KLHDC1 E3 ligases", "settings": "for inhibition of substrate ubiquitylation by Kelch family E3 ligases other than KLHDC2: ligand alone, Fig S5b, c"}, "[2]": {"molecular_target": "KLHDC2^SBD / E344G BRD3^BD2 (Homo sapiens, UniProt Q15059+Q9Y2U9, E344G)", "sequence (Q9Y2U9 15-361)": "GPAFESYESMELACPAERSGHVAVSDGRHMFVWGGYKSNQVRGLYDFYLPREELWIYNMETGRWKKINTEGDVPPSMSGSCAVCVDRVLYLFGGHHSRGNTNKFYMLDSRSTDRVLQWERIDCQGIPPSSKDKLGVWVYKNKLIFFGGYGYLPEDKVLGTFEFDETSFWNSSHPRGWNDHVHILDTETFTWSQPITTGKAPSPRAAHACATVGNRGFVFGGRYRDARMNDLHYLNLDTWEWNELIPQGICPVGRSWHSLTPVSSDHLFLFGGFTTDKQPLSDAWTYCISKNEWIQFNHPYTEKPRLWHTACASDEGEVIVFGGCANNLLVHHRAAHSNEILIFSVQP", "sequence (Q15059 306-416 E344G)": "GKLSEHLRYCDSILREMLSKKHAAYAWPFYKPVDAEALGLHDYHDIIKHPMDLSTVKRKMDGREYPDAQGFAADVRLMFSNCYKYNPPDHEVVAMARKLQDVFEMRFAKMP", "experiment": "ITC, ternary complex KLHDC2^SBD with PROTAC-E344G BRD3^BD2"}, "[3]": {"molecular_target": "KLHDC2^SBD / G386E BRD4^BD2 (Homo sapiens, UniProt O60885+Q9Y2U9, G386E)", "sequence (Q9Y2U9 15-361, other chains not shown)": "as the sequence (Q9Y2U9 15-361) above", "experiment": "ITC, ternary complex KLHDC2^SBD with PROTAC-G386E BRD4^BD2"}, "BRD3": {"molecular_target": "BRD3 (Homo sapiens, UniProt Q15059)", "sequence (Q15059 whole entry)": "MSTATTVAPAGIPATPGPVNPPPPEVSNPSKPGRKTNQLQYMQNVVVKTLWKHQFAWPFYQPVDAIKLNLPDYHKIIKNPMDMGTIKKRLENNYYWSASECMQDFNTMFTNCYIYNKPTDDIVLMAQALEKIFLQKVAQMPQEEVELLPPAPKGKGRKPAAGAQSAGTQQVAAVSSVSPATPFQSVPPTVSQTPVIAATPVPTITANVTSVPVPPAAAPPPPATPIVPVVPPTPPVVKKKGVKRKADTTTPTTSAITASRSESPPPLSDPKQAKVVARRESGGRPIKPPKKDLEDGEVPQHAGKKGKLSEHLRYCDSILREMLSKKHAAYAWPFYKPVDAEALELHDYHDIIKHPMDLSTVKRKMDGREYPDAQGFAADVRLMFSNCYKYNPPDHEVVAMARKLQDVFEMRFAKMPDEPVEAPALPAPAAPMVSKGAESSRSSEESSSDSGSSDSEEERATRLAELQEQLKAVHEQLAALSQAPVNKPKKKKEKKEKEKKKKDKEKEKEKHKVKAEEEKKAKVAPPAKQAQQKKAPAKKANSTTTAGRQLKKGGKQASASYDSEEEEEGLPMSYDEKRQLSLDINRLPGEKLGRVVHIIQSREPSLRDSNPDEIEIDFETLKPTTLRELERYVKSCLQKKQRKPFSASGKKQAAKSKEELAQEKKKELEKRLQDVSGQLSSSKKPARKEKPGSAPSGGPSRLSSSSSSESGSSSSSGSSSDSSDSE", "experiment": "Western blot of BRD3 levels after cellular dosing"}, "BRD4": {"molecular_target": "BRD4 (Homo sapiens, UniProt O60885)", "experiment": "Western blot of BRD4 levels after cellular dosing"}, "[4]": {"system": "BD2 domain from BRD2, BRD3, or BRD4 / neddylated CRL2^KLHDC2", "experiment": "Pulse-chase PROTAC-dependent ubiquitylation of BRD BD2 domains by neddylated CRL2^KLHDC2", "settings": "neddylated CRL2^KLHDC2 not subject to autoinhibition; Fig 3e"}, "[5]": {"settings": "cell: SJ46421-E344G BRD3^BD2, syringe: KLHDC2^SBD"}, "[6]": {"settings": "cell: SJ46421-G386E BRD4^BD2, syringe: KLHDC2^SBD"}, "[7]": {"settings": "Fig S6b, MDA-MB468 Cells, 10 uM"}},
  "note": "pKd: −log10 of the molar value. Values joined by “and” are separate entries in the source; they are usually repeats but may differ in a detail not shown here. Identical values can stand only once. “Also recorded” adds a separate entry of the source.",
  "data": [
    {"smiles": "O=C(O)CNC(=O)Cc1csc(-c2ccc3ccccc3c2)n1", "note": "[SJ46411]", "values": [
      {"measurement": "selectivity towards KLHDC2 over other KLHDC family members", "setting": "[1]; inhibition of SELK ubiquitylation", "value": "at least two orders-of-magnitude"},
      {"measurement": "inhibition of substrate ubiquitylation by Kelch family E3 ligases other than KLHDC2", "setting": "[1]", "value": "does not show substantial effects; also recorded: largely inactive"}
    ]},
    {"smiles": "Cc1sc2c(c1C)C(c1ccc(Cl)cc1)=N[C@@H](CC(=O)N1CCN(CCOc3cccc4ccc(-c5nc(CC(=O)NCC(=O)O)cs5)cc34)CC1)c1nnc(C)n1-2", "note": "[SJ46421]", "values": [
      {"measurement": "inhibition of substrate ubiquitylation by Kelch family E3 ligases other than KLHDC2", "setting": "[1]", "value": "largely inactive"},
      {"measurement": "cooperativity α", "setting": "[2]; E344G BRD3^BD2, KLHDC2^SBD", "value": 1.7},
      {"measurement": "pKd", "setting": "[2]; Kd, Rep1/Rep2, ITC source data Fig4f, syringe KLHDC2, cell SJ46421-E344GBRD3BD2", "value": "6.73 and 6.76"},
      {"measurement": "ITC -TΔS (ternary)", "setting": "[2]; [5]", "value": "-2.23 +/- 0.12 kcal/mol-1"},
      {"measurement": "ITC N (ternary)", "setting": "[2]; [5]", "value": 1.0},
      {"measurement": "ITC ΔG (ternary)", "setting": "[2]; [5]", "value": "-9.42 +/- 0.08 kcal/mol-1"},
      {"measurement": "ITC ΔH (ternary)", "setting": "[2]; [5]", "value": "-7.19 +/- 0.05 kcal/mol-1"},
      {"measurement": "cooperativity α", "setting": "[3]; G386E BRD4^BD2, KLHDC2^SBD", "value": "13 and 12.7"},
      {"measurement": "pKd", "setting": "[3]; Kd, Rep1/Rep2, ITC source data Fig4f, syringe KLHDC2, cell SJ46421-G386EBRD4BD2", "value": "7.63 and 7.59"},
      {"measurement": "ITC -TΔS (ternary)", "setting": "[3]; [6]", "value": "-1.30 +/- 0.11 kcal/mol-1"},
      {"measurement": "ITC N (ternary)", "setting": "[3]; [6]", "value": 0.9},
      {"measurement": "ITC ΔG (ternary)", "setting": "[3]; [6]", "value": "-10.6 +/- 0.04 kcal/mol-1"},
      {"measurement": "ITC ΔH (ternary)", "setting": "[3]; [6]", "value": "-9.05 +/- 0.37 kcal/mol-1"},
      {"measurement": "BRD3 level, Western blot quantification (DMSO = 100)", "setting": "BRD3; Fig 6b, KO/Rescue, 5 uM", "value": "107.446 and 99.4453"},
      {"measurement": "BRD3 level, Western blot quantification (DMSO = 100)", "setting": "BRD3; Fig 6b, U2OS, 5 uM", "value": "111.974 and 117.271"},
      {"measurement": "BRD3 level, Western blot quantification (DMSO = 100)", "setting": "BRD3; Fig S6a, 293T cells, 2.5 uM", "value": "78.3969 and 86.4266"},
      {"measurement": "BRD3 level, Western blot quantification (DMSO = 100)", "setting": "BRD3; Fig S6a, 293T cells, 5 uM", "value": "73.4789 and 84.2355"},
      {"measurement": "BRD3 level, Western blot quantification (DMSO = 100)", "setting": "BRD3; [7]", "value": "61.0904 and 82.4759"},
      {"measurement": "BRD degradation activity in U2OS cells", "setting": "BRD3; wild-type U2OS, 24 h dose, Fig 6b", "value": "inactive"},
      {"measurement": "BRD4 level, Western blot quantification (DMSO = 100)", "setting": "BRD4; Fig 6b, KO/Rescue, 5 uM", "value": "89.649 and 113.548"},
      {"measurement": "BRD4 level, Western blot quantification (DMSO = 100)", "setting": "BRD4; Fig 6b, U2OS, 5 uM", "value": "119.505 and 104.107"},
      {"measurement": "BRD4 level, Western blot quantification (DMSO = 100)", "setting": "BRD4; Fig S6a, 293T cells, 2.5 uM", "value": "98.5503 and 107.435"},
      {"measurement": "BRD4 level, Western blot quantification (DMSO = 100)", "setting": "BRD4; Fig S6a, 293T cells, 5 uM", "value": "86.1267 and 99.7257"},
      {"measurement": "BRD4 level, Western blot quantification (DMSO = 100)", "setting": "BRD4; [7]", "value": "94.0762 and 99.1924"},
      {"measurement": "polyubiquitylation of the BD2 domain from BRD2, BRD3, or BRD4", "setting": "[4]", "value": "able to promote polyubiquitylation"}
    ]}
  ]
}
